Patent US20230105212A1, “BIPHENYL DERIVATIVE INHIBITOR, PREPARATION METHOD THEREFOR AND USE THEREOF” (SHANGHAI HANSOH BIOMEDICAL CO., LTD., priority 2020, published 2023)

Legend:
human PD-1/PD-L1 binding = target: T1, human PD-1/PD-L1 binding (Homo sapiens, UniProt Q9NZQ7); assay: Inhibition of human PD-1/PD-L1 binding (TR-FRET/HTRF); settings: TR-FRET, PD-L1-His and PD-1-Fc; read-out: PD-1/PD-L1 binding IC50
T1 construct: PD-L1-His protein (19 to 238 amino acids) (Abcam #ab167713); purchased Abcam (PD-L1-His); R&D (PD-1-Fc) ab167713; 1086-PD
T1 sequence (Q9NZQ7 19-238): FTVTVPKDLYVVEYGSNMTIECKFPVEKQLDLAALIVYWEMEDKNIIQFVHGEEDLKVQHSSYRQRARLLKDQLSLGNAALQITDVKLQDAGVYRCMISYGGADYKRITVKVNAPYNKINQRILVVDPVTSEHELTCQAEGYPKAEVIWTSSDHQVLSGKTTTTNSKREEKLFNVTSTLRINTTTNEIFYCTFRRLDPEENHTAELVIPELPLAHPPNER
From the text: Test Embodiment 1: Test of Inhibitory Effect of the Compounds of the Present Disclosure on Human PD-1/PD-L1 Binding
Experimental purpose: The purpose of this test embodiment was to measure the inhibitory activity of the compounds on human PD-1/PD-L1 binding.
Experimental reagents: Binding Domain diluent buffer was purchased from Cisbio Company, Cat. No.: 62DLBDDF; MAb Anti-6HIS Eu cryptate Gold was purchased from Cisbio Company with the article number of 61HI2KLA; PAb Anti Human IgG-XL665 was purchased from Cisbio Company with the article number of 61HFCXLB; PD-L1-His protein was purchased from Abcam Company with the article number of ab167713; PD-1-Fc protein was purchased from R&D Company with the article number of 1086-PD; Detection buffer was purchased from Cisbio Company with the article number of 62SDBRDD; 384-well plate was purchased from PerkinElmer Company with the article number of 6007290.
Experimental method: In order to test the inhibitory activity of the compounds on human PD-1/PD-L1 binding, the method of time-resolved fluorescence resonance energy transfer (TR-FRET) was used in this experiment to test the inhibition of the compounds on human PD-1/PD-L1 binding, and the half inhibitory concentration IC50 of inhibitory activity of the compounds on human PD-1/PD-L1 binding was obtained.
This experiment was performed in a 384-well plate with a total reaction volume of 20 μL. Compounds were diluted to different concentrations (10 μM or 1 μM starting, 3-fold dilution, 11 doses) using assay buffer Binding Domain diluent buffer (Cisbio #62DLBDDF), then PD-L1-His protein (19 to 238 amino acids) (Abcam #ab167713) was diluted to 10 nM with assay buffer, and PD-1-Fc protein (25 to 167 amino acids) (R&D #1086-PD) was diluted to 20 nM with assay buffer; the compound, PD-L1 protein and PD-1 protein were added to a 384-well plate respectively, and the total volume was 10 μL, then centrifuged at 1000 rpm for 1 minute to mix well, and incubated for 60 minutes at room temperature. Then 10 μL of a mixed solution of MAb Anti-6HIS Eu cryptate Gold (Cisbio #61HI2KLA) and PAb Anti Human IgG-XL665 (Cisbio #61HFCXLB) diluted by HTRF Detection buffer was added to each well, and centrifuged at 1000 rpm for 1 minute to mix well. The reaction was carried out at room temperature for 3 hours or at 4° C. overnight, then a microplate reader (BioTek Synergy H1) was put into for reading; the excitation wavelength was 340 nm, and the emission wavelengths were 620 nm and 665 nm.
The ratio of fluorescence readings at 620 nm and 665 nm (665 nm/620 nm) was calculated, and the inhibition rate was calculated.

[1] = target: T2, PD-L1 protein on the surface of MC38-hPDL1 tumor cells (Homo sapiens, UniProt Q9NZQ7); assay: Induction of endocytosis of PD-L1 on the surface of tumor cells (flow cytometry); assay type: cell-based; settings: 16 hours incubation; for Emax: MC38-hPDL1 cells, read-out: MC38 maximum endocytosis rate; for IC50: inducing endocytosis of PD-L1, MC38-hPDL1 cells, read-out: MC38 IC50
T2 construct: expressed in transfected cells; host or cells: MC38-hPDL1 (mouse colon cancer cells)
T2 sequence (Q9NZQ7 19-290): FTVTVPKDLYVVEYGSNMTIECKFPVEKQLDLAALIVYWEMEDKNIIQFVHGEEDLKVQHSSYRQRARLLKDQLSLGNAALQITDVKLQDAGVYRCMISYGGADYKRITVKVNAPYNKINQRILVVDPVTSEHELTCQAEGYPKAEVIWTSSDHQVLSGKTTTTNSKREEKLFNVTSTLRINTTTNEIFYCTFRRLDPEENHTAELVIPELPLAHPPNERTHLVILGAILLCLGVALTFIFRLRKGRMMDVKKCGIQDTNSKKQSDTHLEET
From the text: Test Embodiment 2. Test of the Activity of Compounds of the Present Disclosure on Inducing the Endocytosis of PD-L1 Protein on the Surface of Tumor Cells
Experimental purpose: The purpose of this test embodiment was to test the activity of the compound on inducing the endocytosis of PD-L1 on the surface of tumor cells.
Experimental method: In order to test the activity of the compound on inducing the endocytosis of PD-L1, in this experiment, the activity of the compound on inducing the endocytosis of PD-L1 was tested by detecting the change degree of PD-L1 on the tumor cell surface with fluorescently labeled anti-PD-L1 antibody, and the IC50 of activity of the compound on inducing the endocytosis of PD-L1 was obtained.
The mouse colon cancer cells MC38-hPDL1 with high expression of hPD-L1 were collected, and adjusted to a suitable density and plated in a 24-well plate, and placed in a 37° C., 5% CO2 incubator to adhere overnight. Compounds were prepared into different concentrations by medium and added to a 24-well plate, and a vehicle control well was set up. After the cells were incubated in a 37° C., 5% CO2 incubator for 16 hours, the 24-well plate was taken out, and MC38-hPDL1 cells with different treatments in the plate were collected. After the cells were washed once with FACS buffer (PBS containing 0.5% BSA), and the cells were prepared to an appropriate density with FACS buffer. PE Mouse Anti-Human CD274 antibody (BD Pharmingen #557924) was added, and the cells were shaken at room temperature and incubated for 30 minutes without light, then the cells were washed twice with FACS buffer, resuspended in 100 μL of PBS, and a flow cytometer was used to detect the fluorescent signal on the cell surface, and the isotype control was set as a negative control.
The endocytosis rate of the compounds was calculated from the fluorescence signals of different treatment groups, and the compound concentration and endocytosis rate were fitted by nonlinear regression using GraphPad Prism software, and IC50 values were obtained, as shown in Table 2.

| SMILES | IC50 (human PD-1/PD-L1 binding) [nM] | Emax [1] [%] | IC50 [1] [nM] |
| --- | --- | --- | --- |
| COc1cc(-c2cccc(-c3cccc(NC(=O)c4nc5c(n4C)CCN(C)C5)c3Cl)c2Cl)cnc1CN1CC(F)C1 [Embodiment 163, N-(2,2′-Dichloro-3′-(6-((3-fluoroazetidin-1-yl)methyl)-5-methoxypyridin-3-yl)-[1,1′-biphenyl]-3-yl)-1,5-dimethyl-4,5,6,7-tetrahydro-1H-imidazo[4,5-c]pyridine-2-carboxamide] | 7.7 |  |  |
| COc1nc(OCc2cccc(-c3cccc(NC(=O)c4nc5c(n4C)CCN(C)C5)c3Cl)c2C)nc(OC)c1CN1CCCC[C@H]1C(=O)O [Embodiment 170, (S)-1-((2-((2′-Chloro-3′-(1,5-dimethyl-4,5,6,7-tetrahydro-1H-imidazo[4,5-c]pyridine-2-carboxamido)-2-methyl-[1,1′-biphenyl]-3-yl)methoxy)-4,6-dimethoxypyrimidin-5-yl)methyl)piperidine-2-carboxylic Acid] | 4.1 |  |  |
| COc1cc(-c2cccc(-c3cccc(NC(=O)c4nc5c(n4C)CCN(C)C5)c3Cl)c2Cl)ncc1CNC1CCOCC1 [Embodiment 57, N-(2,2′-Dichloro-3′-(4-methoxy-5-(((tetrahydro-2H-pyran-4-yl)amino)methyl)pyridin-2-yl)-[1,1′-biphenyl]-3-yl)-1,5-dimethyl-4,5,6,7-tetrahydro-1H-imidazo[4,5-c]pyridine-2-carboxamide] | 3 |  |  |
| Cc1c(NC(=O)c2ccc(CN3CC[C@@H](F)C3)cn2)cccc1-c1cccc(NC(=O)c2nc3c(n2C)CCN(C)C3)c1Cl [Embodiment 106, (R)—N-(2-Chloro-3′-(5-((3-fluoropyrrolidin-1-yl)methyl)picolinamido)-2′-methyl-[1,1′-biphenyl]-3-yl)-1,5-dimethyl-4,5,6,7-tetrahydro-1H-imidazo[4,5-c]pyridine-2-carboxamide] | 6.5 |  |  |
| COc1cc(-c2cccc(-c3cccc(NC(=O)c4nc5c(n4C)CCN(C)C5)c3Cl)c2C)ncc1CN1CC[C@@H](F)C1 [Embodiment 60, (R)—N-(2-Chloro-3′-(5-((3-fluoropyrrolidin-1-yl)methyl)-4-methoxypyridin-2-yl)-2′-methyl-[1,1′-biphenyl]-3-yl)-1,5-dimethyl-4,5,6,7-tetrahydro-1H-imidazo[4,5-c]pyridine-2-carboxamide] | 6.9 |  |  |
| COc1nc(C(=O)Nc2cccc(-c3cccc(NC(=O)c4nc5c(n4C)CCN(C)C5)c3Cl)c2C)ccc1CN[C@@H](C)CO [Embodiment 43, (S)—N-(2-Chloro-3′-(5-(((1-hydroxypropan-2-yl)amino)methyl)-6-methoxypicolinamido)-2′-methyl-[1,1′-biphenyl]-3-yl)-1,5-dimethyl-4,5,6,7-tetrahydro-1H-imidazo[4,5-c]pyridine-2-carboxamide] | 4.1 |  |  |

The remaining lines, values ahead:

| IC50 (human PD-1/PD-L1 binding) [nM] | Emax [1] [%] | IC50 [1] [nM] | SMILES |
| --- | --- | --- | --- |
| 6.9 | 88 | 3.4 | COc1cc(NCc2cnc(C(=O)Nc3cccc(-c4cccc(NC(=O)c5nc6c(n5C)CCN(C)C6)c4Cl)c3C)cc2OC)ccn1 [Embodiment 1, N-(2-Chloro-3′-(4-methoxy-5-(((2-methoxypyridin-4-yl)amino)methyl)picolinamido)-2′-methyl-[1,1′-biphenyl]-3-yl)-1,5-dimethyl-4,5,6,7-tetrahydro-1H-imidazo[4,5-c]pyridine-2-carboxamide] |
| 6.3 | 93 | 5.6 | COc1cc(C(=O)Nc2cccc(-c3cccc(NC(=O)c4nc5c(n4C)CCN(C)C5)c3Cl)c2C)ncc1CN[C@H]1CCCNC1=O [Embodiment 98, (S)—N-(2-Chloro-3′-(4-methoxy-5-(((2-carbonylpiperidin-3-yl)amino)methyl)picolinamido)-2′-methyl-[1,1′-biphenyl]-3-yl)-1,5-dimethyl-4,5,6,7-tetrahydro-1H-imidazo[4,5-c]pyridine-2-carboxamide] |
| 3.6 | 96 | 1.3 | COc1cc(C(=O)Nc2cccc(-c3cccc(NC(=O)c4nc5c(n4C)CCN(C)C5)c3Cl)c2C)ncc1CNC1CCOCC1 [Embodiment 35, N-(2-Chloro-3′-(4-methoxy-5-(((tetrahydro-2H-pyran-4-yl)amino)methyl)picolinamido)-2′-methyl-[1,1′-biphenyl]-3-yl)-1,5-dimethyl-4,5,6,7-tetrahydro-1H-imidazo[4,5-c]pyridine-2-carboxamide] |
| 4 | 90 | 1.9 | C=CCNCc1cnc(C(=O)Nc2cccc(-c3cccc(NC(=O)c4nc5c(n4C)CCN(C)C5)c3Cl)c2C)cc1OC [Embodiment 41, N-(3′-(5-((Allylamino)methyl)-4-methoxypicolinamido)-2-chloro-2′-methyl-[1,1′-biphenyl]-3-yl)-1,5-dimethyl-4,5,6,7-tetrahydro-1H-imidazo[4,5-c]pyridine-2-carboxamide] |
| 6 |  |  | COc1cc(C(=O)Nc2cccc(-c3cccc(NC(=O)c4nc5c(n4C)CCN(C)C5)c3Cl)c2C)ncc1CNC1CN(C(C)=O)C1 [Embodiment 100, N-(3′-(5-(((1-Acetylazetidin-3-yl)amino)methyl)-4-methoxypicolinamido)-2-chloro-2′-methyl-[1,1′-biphenyl]-3-yl)-1,5-dimethyl-4,5,6,7-tetrahydro-1H-imidazo[4,5-c]pyridine-2-carboxamide] |
| 5 |  |  | COc1cc(C(=O)Nc2cccc(-c3cccc(NC(=O)c4nc5c(n4C)CCN(C)C5)c3Cl)c2C)ncc1CN[C@@H]1CCNC1=O [Embodiment 97, (R)—N-(2-Chloro-3′-(4-methoxy-5-(((2-carbonylpyrrolidin-3-yl)amino)methyl)picolinamido)-2′-methyl-[1,1′-biphenyl]-3-yl)-1,5-dimethyl-4,5,6,7-tetrahydro-1H-imidazo[4,5-c]pyridine-2-carboxamide] |
| 4.7 |  |  | COc1cc(CN[C@@H]2CCOC[C@@H]2F)cnc1C(=O)Nc1cccc(-c2cccc(NC(=O)c3nc4c(n3C)CCN(C)C4)c2Cl)c1C [Embodiment 109, N-(2-Chloro-3′-(5-((((3R,4R)-3-fluorotetrahydro-2H-pyran-4-yl)amino)methyl)-3-methoxypicolinamido)-2′-methyl-[1,1′-biphenyl]-3-yl)-1,5-dimethyl-4,5,6,7-tetrahydro-1H-imidazo[4,5-c]pyridine-2-carboxamide] |
| 9.1 |  |  | COc1cc(C(=O)Nc2cccc(-c3cccc(NC(=O)c4nc5c(n4C)CCN(C)C5)c3Cl)c2C)ncc1CN1CC2(COC2)CC1=O [Embodiment 104, N-(2-Chloro-3′-(4-methoxy-5-((7-carbonyl-2-oxa-6-azaspiro[3.4]octan-6-yl)methyl)picolinamido)-2′-methyl-[1,1′-biphenyl]-3-yl)-1,5-dimethyl-4,5,6,7-tetrahydro-1H-imidazo[4,5-c]pyridine-2-carboxamide] |
